Data as given in US20100143462A1, “NEW CARBAMAZEPHINE FORMULATIONS HAVING INPROVED SOLUBILITY” (NUTRALEASE LTD., priority 2004, published 2010).

Key:
[1] = Solubilization capacity of microemulsion / concentrate for Carbamazepine; format: physicochemical; details: 50 wt % aqueous phase (water:PG 1:1), dilution line 7:3, D-limonene:ethanol 1:1, FIG. 2
Method: When solubilizing a drug in a microemulsion system, the solubilization capacity should be characterized. […] For the 7:3 dilution line (FIG. 2), the 5 gr oil phase concentrate comprises 0.75 gr of D-limonene, 0.75 gr EtOH (each being 15 wt %), and 3.5 gr Tween 60 (70 wt %). The 5 gr oil concentrate is then diluted in an aqueous phase of water:propylene glycol (1:1). For the 8:2 dilution line (FIG. 3) the 5 gr oil phase concentrate comprises 0.5 gr of D-limonene, 0.5 gr EtOH (each being 10 wt %), and 4 gr Tween 60 (80 wt %). The 5 gr oil concentrate is then diluted in an aqueous phase of water:propylene glycol (1:1). For the 9:1 dilution line (FIG. 4) the 5 gr oil phase concentrate comprises 0.25 gr of D-limonene, 0.25 gr EtOH (each being 5 wt %), and 4 gr Tween 60 (90 wt %). The 5 gr oil concentrate is then diluted in an aqueous phase of water:propylene glycol (1:1).
Preparations of the microemulsions and microemulsion concentrate were done in the following manner. The surfactant and the oil phase were mixed at the appropriate ratio, 7:3, 8:2 and 9:1 respectively, to form the concentrate. The solubilization of the drug in the concentrate was determined by solubilizing it to form clear solutions, until the maximal amount was reached. […]

[2] = following a single oral dose; cited from earlier work

solubilization capacity of microemulsion (solubilized Carbamazepine) [1]: 3.76%
Structure (SMILES): NC(=O)N1c2ccccc2C=Cc2ccccc21 [Carbamazepine, 5H-Dibenz(b,f)azepine-5-carboxamide]
elimination half-life of unchanged Carbamazepine in the plasma [2]: approximately 36 hours
